Measured values taken from patent publication US9850283B2, “Macrocyclic inhibitors of the PD-1/PD-L1 and CD80(B7-1)/PD-L1 protein/protein interactions” (BRISTOL-MYERS SQUIBB COMPANY, priority 2013, dated 2017).
Positions of bridges follow the written chain, without caps; N, C: chain ends. Non-standard residues stand in square brackets, D forms with d. Residues, ends and D or L forms follow the SMILES beside them. ξ: configuration not given here. Bta = N[C@@H](Cc1csc2ccccc12)C(=O)O; ξPro(4R-OH) = O=C(O)C1C[C@@H](O)CN1; Hyp = O=C(O)[C@@H]1C[C@@H](O)CN1; dNMeNle = CCCC[C@@H](NC)C(=O)O; NMeNle = CCCC[C@H](NC)C(=O)O; NMeA = CN[C@@H](C)C(=O)O; Orn = NCCC[C@H](N)C(=O)O; dDap = NC[C@@H](N)C(=O)O; Dab = NCC[C@H](N)C(=O)O; Dap = NC[C@H](N)C(=O)O; ξPip = O=C(O)C1CCCCN1; ξP = O=C(O)C1CCCN1

How the values were obtained:
[1] = target: T1, LK35.2-hPD-L1 cells / PE-labeled PD-1-Ig (Homo sapiens, UniProt Q9NZQ7); assay: LK35.2-hPD-L1 cell binding high-content screening assay; format: cell-based; details: cluster symbol; cell line of CBA not given (LK35.2-hPD-L1 or 293T-hPD-L1); read-out: CBA IC50 cluster
T1 construct: expressed in transfected cells; host or cells: LK35.2 mouse B cell line
T1 sequence (Q9NZQ7 19-290): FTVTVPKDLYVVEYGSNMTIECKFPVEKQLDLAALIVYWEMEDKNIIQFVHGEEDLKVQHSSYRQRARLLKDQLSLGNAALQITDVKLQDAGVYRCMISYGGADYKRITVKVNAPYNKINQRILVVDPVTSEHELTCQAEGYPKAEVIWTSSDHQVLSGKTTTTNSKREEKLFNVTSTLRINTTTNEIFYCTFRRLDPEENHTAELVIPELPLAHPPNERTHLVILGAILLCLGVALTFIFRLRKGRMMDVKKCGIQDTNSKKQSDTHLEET
Method in brief: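 Mouse LK35.2 B cells stably overexpressing human PD-L1 were cultured overnight in RPMI with 10% FCS, then given compound and PE-labeled human PD-1-Ig (1 nM final) for 1 h at 37 °C. After three dPBS washes, bound fluorescence was quantified by high-content imaging.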

[2] = target: T2, Human PD-L1/PD-1 (Homo sapiens, UniProt Q9NZQ7); assay: HTRF PD-1-Ig/PD-L1-His binding assay (human PD-L1); details: cluster symbol; read-out: HTRF IC50 cluster
T2 construct: made in house; host or cells: HEK293T
T2 sequence (Q9NZQ7 with tags, fused parts or gaps): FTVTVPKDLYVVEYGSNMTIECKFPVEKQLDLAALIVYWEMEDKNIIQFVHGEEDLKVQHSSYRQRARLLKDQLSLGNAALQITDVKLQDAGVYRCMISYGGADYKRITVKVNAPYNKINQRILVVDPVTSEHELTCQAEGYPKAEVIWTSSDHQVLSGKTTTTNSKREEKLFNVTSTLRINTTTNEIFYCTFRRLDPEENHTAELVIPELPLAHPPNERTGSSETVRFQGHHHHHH
Method in brief: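 Soluble Fc-fused PD-1 and His-tagged PD-L1 (truncated before the transmembrane region) were combined in dPBS with 0.1% (w/v) BSA and 0.05% (v/v) Tween-20. Binding was read by HTRF using europium cryptate anti-Ig antibody (1 nM final) and APC anti-His antibody (20 nM final).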

SMILES	IC50 [1] [nM]	IC50 [2] [nM]
CCCC[C@@H]1C(=O)N(C)[C@H](CCCC)C(=O)N[C@@H](CCCN)C(=O)N[C@@H](C(=O)NCC(N)=O)CSCC(=O)N[C@@H](Cc2ccc(O)cc2)C(=O)N2CCCC2C(=O)N[C@H](CC(=O)O)C(=O)N2CCC[C@H]2C(=O)N[C@H](CN)C(=O)N[C@@H](CCC(=O)O)C(=O)N2CCCC2C(=O)N[C@H](Cc2c[nH]c3ccccc23)C(=O)N[C@@H](CCN)C(=O)N[C@@H](Cc2c[nH]c3ccccc23)C(=O)N1C (stereo partly shown) [Example 1214] ({CH2CO}-Y[ξP][dD]P[dDap]E[ξP][dW][Dab]W[dNMeNle][dNMeNle][Orn][dC]G-NH2; thioether N-14)	4.78 to 72.9	6.76 to 30.3
CCCC[C@@H]1C(=O)N(C)[C@H](CCCC)C(=O)N[C@@H](CCCN)C(=O)N[C@@H](C(=O)NCC(N)=O)CSCC(=O)N[C@@H](Cc2ccc(O)cc2)C(=O)N2CCCC2C(=O)N[C@H](CC(=O)O)C(=O)N2CCC[C@H]2C(=O)N[C@H](Cc2c[nH]cn2)C(=O)N[C@@H](CCC(=O)O)C(=O)N2CCCC2C(=O)N[C@H](Cc2c[nH]c3ccccc23)C(=O)N[C@@H](CCN)C(=O)N[C@@H](Cc2c[nH]c3ccccc23)C(=O)N1C (stereo partly shown) [Example 1216] ({CH2CO}-Y[ξP][dD]P[dH]E[ξP][dW][Dab]W[dNMeNle][dNMeNle][Orn][dC]G-NH2; thioether N-14)	> 74.3	6.76 to 30.3
CCCC[C@@H]1C(=O)N(C)[C@H](CCCC)C(=O)N[C@@H](CCCNC(=N)N)C(=O)N[C@@H](C(=O)NCC(N)=O)CSCC(=O)N[C@@H](Cc2ccc(O)cc2)C(=O)N2CCCCC2C(=O)N[C@H](CCC(=O)O)C(=O)N2CCC[C@H]2C(=O)N[C@H](Cc2c[nH]cn2)C(=O)N[C@@H](CCCN)C(=O)N2C[C@H](O)CC2C(=O)N[C@H](Cc2c[nH]c3ccccc23)C(=O)N[C@@H](CO)C(=O)N[C@@H](Cc2c[nH]c3ccccc23)C(=O)N1C (stereo partly drawn) [Example 1217] ({CH2CO}-Y[ξPip][dE]P[dH][Orn][ξPro(4R-OH)][dW]SW[dNMeNle][dNMeNle]R[dC]G-NH2; thioether N-14)	4.78 to 72.9	6.76 to 30.3
CCCC[C@@H]1C(=O)N(C)[C@H](CCCC)C(=O)N[C@@H](CCCNC(=N)N)C(=O)N[C@@H](C(=O)NCC(N)=O)CSCC(=O)N[C@@H](Cc2ccc(O)cc2)C(=O)N2CCCCC2C(=O)N[C@H](CC(=O)O)C(=O)N2CCC[C@H]2C(=O)N[C@H](Cc2c[nH]cn2)C(=O)N[C@@H](CCCN)C(=O)N2C[C@H](O)CC2C(=O)N[C@H](Cc2c[nH]c3ccccc23)C(=O)N[C@@H](CO)C(=O)N[C@@H](Cc2c[nH]c3ccccc23)C(=O)N1C (stereo partly drawn) [Example 1218] ({CH2CO}-Y[ξPip][dD]P[dH][Orn][ξPro(4R-OH)][dW]SW[dNMeNle][dNMeNle]R[dC]G-NH2; thioether N-14)	4.78 to 72.9	6.76 to 30.3
CCCC[C@@H]1C(=O)N(C)[C@H](CCCC)C(=O)N[C@@H](CCCN)C(=O)N[C@@H](C(=O)NCC(N)=O)CSCC(=O)N[C@@H](Cc2ccc(O)cc2)C(=O)N2CCNCC2C(=O)N[C@H](CC(N)=O)C(=O)N2CCC[C@H]2C(=O)N[C@H](Cc2c[nH]cn2)C(=O)N[C@@H](CC(C)C)C(=O)N2C[C@H](O)CC2C(=O)N[C@H](Cc2c[nH]c3ccccc23)C(=O)N[C@@H](CO)C(=O)N[C@@H](Cc2c[nH]c3ccccc23)C(=O)N1C (stereo partly shown) [Example 1220]	4.78 to 72.9	6.76 to 30.3
CC(C)C[C@@H]1NC(=O)[C@@H](Cc2c[nH]cn2)NC(=O)[C@@H]2CCCN2C(=O)[C@@H](CC(N)=O)NC(=O)C(C)N(C)C(=O)[C@H](Cc2ccc(O)cc2)NC(=O)CSC[C@H](C(=O)NCC(N)=O)NC(=O)[C@H](C)NC(=O)[C@@H](CC(=O)O)N(C)C(=O)[C@@H](CCCCN)N(C)C(=O)[C@H](Cc2c[nH]c3ccccc23)NC(=O)[C@H](CO)NC(=O)[C@@H](Cc2c[nH]c3ccccc23)NC(=O)C2C[C@@H](O)CN2C1=O (stereo partly shown) [Example 1221]	> 74.3	> 30.5
CCCC[C@H]1C(=O)N(C)[C@@H](CCCC)C(=O)N[C@@H](CN)C(=O)N[C@H](C(=O)NCC(N)=O)CSCC(=O)N[C@@H](Cc2ccc(O)cc2)C(=O)N2CCC[C@H]2C(=O)N[C@@H](CC(=O)O)C(=O)N2CCC[C@H]2C(=O)N[C@@H](CN)C(=O)N[C@@H](CC(=O)O)C(=O)N2C[C@H](O)C[C@H]2C(=O)N[C@@H](Cc2c[nH]c3ccccc23)C(=O)N[C@@H](CCN)C(=O)N[C@@H](Cc2csc3ccccc23)C(=O)N1C [Example 1222] ({CH2CO}-YPDP[Dap]D[Hyp]W[Dab][Bta][NMeNle][NMeNle][Dap]CG-NH2; thioether N-14)	> 74.3	6.76 to 30.3

Further lines, results first:

IC50 [1] [nM]	IC50 [2] [nM]	SMILES
0.158 to 4.71	6.76 to 30.3	CCCC[C@@H]1C(=O)N(C)[C@H](CCCC)C(=O)N[C@@H](CCCN)C(=O)N[C@@H](C(=O)NCC(N)=O)CSCC(=O)N[C@@H](Cc2ccc(O)cc2)C(=O)N2CCCCC2C(=O)N[C@H](CC(=O)O)C(=O)N2CCC[C@H]2C(=O)N[C@H](Cc2c[nH]cn2)C(=O)N[C@@H](CCC(=O)O)C(=O)N2C[C@H](O)CC2C(=O)N[C@H](Cc2c[nH]c3ccccc23)C(=O)N[C@@H](CO)C(=O)N[C@@H](Cc2c[nH]c3ccccc23)C(=O)N1C (stereo partly drawn) [Example 1219] ({CH2CO}-Y[ξPip][dD]P[dH]E[ξPro(4R-OH)][dW]SW[dNMeNle][dNMeNle][Orn][dC]G-NH2; thioether N-14)
0.158 to 4.71	0.385 to 6.74	CCCC[C@H]1C(=O)N(C)[C@@H](CCCC)C(=O)N[C@@H](CN)C(=O)N[C@H](C(=O)NCC(N)=O)CSCC(=O)N[C@@H](Cc2ccc(O)cc2)C(=O)N(C)[C@@H](C)C(=O)N[C@@H](CC(=O)O)C(=O)N2CCC[C@H]2C(=O)N[C@@H](CN)C(=O)N[C@@H](CCC(N)=O)C(=O)N2C[C@H](O)C[C@H]2C(=O)N[C@@H](Cc2c[nH]c3ccccc23)C(=O)N[C@@H](CCN)C(=O)N[C@@H](Cc2csc3ccccc23)C(=O)N1C [Example 1223] ({CH2CO}-Y[NMeA]DP[Dap]Q[Hyp]W[Dab][Bta][NMeNle][NMeNle][Dap]CG-NH2; thioether N-14)
0.158 to 4.71	0.385 to 6.74	CCCC[C@H]1C(=O)N(C)[C@@H](CCCC)C(=O)N[C@@H](CN)C(=O)N[C@H](C(=O)NCC(N)=O)CSCC(=O)N[C@@H](Cc2ccc(O)cc2)C(=O)N(C)[C@@H](C)C(=O)N[C@@H](CC(=O)O)C(=O)N2CCC[C@H]2C(=O)N[C@@H](CN)C(=O)N[C@@H](CC(=O)O)C(=O)N2C[C@H](O)C[C@H]2C(=O)N[C@@H](Cc2c[nH]c3ccccc23)C(=O)N[C@@H](CCN)C(=O)N[C@@H](Cc2csc3ccccc23)C(=O)N1C [Example 1224] ({CH2CO}-Y[NMeA]DP[Dap]D[Hyp]W[Dab][Bta][NMeNle][NMeNle][Dap]CG-NH2; thioether N-14)
0.158 to 4.71	0.385 to 6.74	CCCC[C@H]1C(=O)N(C)[C@@H](CCCC)C(=O)N[C@@H](CN)C(=O)N[C@H](C(=O)NCC(N)=O)CSCC(=O)N[C@@H](Cc2ccc(O)cc2)C(=O)N(C)[C@@H](C)C(=O)N[C@@H](CC(N)=O)C(=O)N2CCC[C@H]2C(=O)N[C@@H](CN)C(=O)N[C@@H](CCC(N)=O)C(=O)N2C[C@H](O)C[C@H]2C(=O)N[C@@H](Cc2c[nH]c3ccccc23)C(=O)N[C@@H](CCN)C(=O)N[C@@H](Cc2csc3ccccc23)C(=O)N1C [Example 1225] ({CH2CO}-Y[NMeA]NP[Dap]Q[Hyp]W[Dab][Bta][NMeNle][NMeNle][Dap]CG-NH2; thioether N-14)
